Source: US8193170B2, “2-methylene-19,26-dinor-(20R,22E,25R)-vitamin D analogs” (Wisconsin Alumni Research Foundation, priority 2008, dated 2012)
“Also recorded” adds a separate entry of the source.

Columns and labels:
[1] = Intestinal calcium transport, everted gut sac method, in vitamin D-deficient rats; format: in vivo, rat; conditions: FIG. 5
Protocol: (§1) Male, weanling Sprague-Dawley rats were placed on Diet 11 (0.47% Ca) diet+AEK oil for one week followed by Diet 11 (0.02% Ca)+AEK oil for 3 weeks. The rats were then switched to a diet containing 0.47% Ca for one week followed by two weeks on a diet containing 0.02% Ca. Dose administration began during the last week on 0.02% calcium diet. Four consecutive ip doses were given approximately 24 hours apart. Twenty-four hours after the last dose, blood was collected from the severed neck and the concentration of serum calcium determined as a measure of bone calcium mobilization. The first 10 cm of the intestine was also collected for intestinal calcium transport analysis using the everted gut sac method.

[2] = biological target: T1, full-length recombinant rat vitamin D receptor (Rattus norvegicus, UniProt P13053); experiment: Vitamin D receptor competitive binding with [3H]-1,25(OH)2D3
T1 construct: Full-length recombinant rat receptor was expressed in E. coli; histidine tag (C); made in house; host or cells: E. coli BL21 (DE3) Codon Plus RIL
T1 sequence (P13053 1-423): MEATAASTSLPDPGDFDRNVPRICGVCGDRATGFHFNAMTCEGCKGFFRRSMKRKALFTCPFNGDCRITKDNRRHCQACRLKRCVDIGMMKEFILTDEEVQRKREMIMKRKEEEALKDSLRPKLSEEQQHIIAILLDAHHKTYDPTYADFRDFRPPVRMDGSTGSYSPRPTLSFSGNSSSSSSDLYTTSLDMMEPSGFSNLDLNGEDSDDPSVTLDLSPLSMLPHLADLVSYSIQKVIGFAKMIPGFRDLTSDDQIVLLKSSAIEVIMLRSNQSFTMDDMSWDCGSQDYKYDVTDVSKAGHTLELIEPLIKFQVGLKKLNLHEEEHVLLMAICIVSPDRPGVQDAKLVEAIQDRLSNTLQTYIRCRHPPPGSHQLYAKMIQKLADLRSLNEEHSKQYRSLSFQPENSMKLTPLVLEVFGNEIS
Protocol: Full-length recombinant rat receptor was expressed in E. coli BL21 (DE3) Codon Plus RIL cells and purified to homogeneity using two different column chromatography systems. The first system was a nickel affinity resin that utilizes the C-terminal histidine tag on this protein. The protein that was eluted from this resin was further purified using ion exchange chromatography (S-Sepharose Fast Flow). Aliquots of the purified protein were quick frozen in liquid nitrogen and stored at −80° C. until use. For use in binding assays, the protein was diluted in TEDK50 (50 mM Tris, 1.5 mM EDTA, pH7.4, 5 mM DTT, 150 mM KCl) with 0.1% Chaps detergent. The receptor protein and ligand concentration were optimized such that no more than 20% of the added radiolabeled ligand was bound to the receptor.
Radiolabeled and unlabeled ligands were added to 100 mcl of the diluted protein at a final ethanol concentration of ≦10%, mixed and incubated overnight on ice to reach binding equilibrium. The following day, 100 mcl of hydroxylapatite slurry (50%) was added to each tube and mixed at 10-minute intervals for 30 minutes. The hydroxylapaptite was collected by centrifugation and then washed three times with Tris-EDTA buffer (50 mM Tris, 1.5 mM EDTA, pH 7.4) containing 0.5% Titron X-100. […] Total binding was determined from the tubes containing only radiolabeled ligand.

[3] = Bone calcium mobilization (serum calcium) in vitamin D-deficient rats; format: in vivo, rat; conditions: rats on 0.02% Ca diet, FIG. 4
Protocol: as §1

HL-60 cells = experiment: HL-60 cell differentiation (nitro blue tetrazolium reduction); format: cell-based, human; conditions: for EC50: differentiation of HL-60 cells into monocytes, FIG. 2
Protocol: The study drugs were dissolved in ethanol and the concentrations determined using UV spectrophotometry. Serial dilutions were prepared so that a range of drug concentrations could be tested without changing the final concentration of ethanol (≦0.2%) present in the cell cultures.
Human promyelocytic leukemia (HL60) cells were grown in RPMI-1640 medium containing 10% fetal bovine serum. The cells were incubated at 37° C. in the presence of 5% CO2.
HL60 cells were plated at 1.2×10^5 cells/ml. Eighteen hours after plating, cells in duplicate were treated with drug. Four days later, the cells were harvested and a nitro blue tetrazolium reduction assay was performed (Collins et al., 1979; J. Exp. Med. 149:969-974). The percentage of differentiated cells was determined by counting a total of 200 cells and recording the number that contained intracellular black-blue formazan deposits. Verification of differentiation to monocytic cells was determined by measuring phagocytic activity (data not shown).

[4] = system: 24-hydroxylase (24Ohase) gene promoter in ROS 17/2.8 (bone) cells; experiment: In vitro transcription assay (24-hydroxylase gene promoter luciferase reporter); format: cell-based; conditions: for EC50: ROS 17/2.8 cells, 24-hydroxylase promoter-luciferase, FIG. 3, read-out: EC50, transcriptional activity in bone cells
Protocol: Transcription activity was measured in ROS 17/2.8 (bone) cells that were stably transfected with a 24-hydroxylase (24Ohase) gene promoter upstream of a luciferase reporter gene (Arbour et al., 1998). Cells were given a range of doses. Sixteen hours after dosing the cells were harvested and luciferase activities were measured using a luminometer.
RLU=relative luciferase units.

[5] = 780 pmol/day ip for 4 consecutive days

Ki ([2]; full-length recombinant rat VDR, FIG. 1, read-out: Ki, competition with [3H]-1,25(OH)2D3 for binding to the vitamin D receptor) [nM] | VDR binding potency relative to 1,25(OH)2D3 (times less potent) ([2]; less potent than 1,25(OH)2D3) | EC50 (HL-60 cells; Homo sapiens) [nM] | SMILES | Intestinal calcium transport activity [1, 5] | Intestinal calcium transport, dose dependence ([1]; range of doses) | Bone calcium mobilization (serum calcium) ([3]; 2,340 pmol/day ip for 4 consecutive days) | HL-60 cell differentiation activity relative to 1,25(OH)2D3 (times more) (HL-60 cells; more active than 1,25(OH)2D3) | EC50 [4] [nM] | Transcription activity of the 24-hydroxylase gene relative to 1,25(OH)2D3 (times more) ([4]; more potent than 1,25(OH)2D3, bone cells) | Bone calcium mobilization (serum calcium) [3, 5] | Serum calcium levels ([3]; all dosages tested) | EC50 (HL-60 cells) [nM]
0.1 | about 10 times | 0.2 | C=C1[C@H](O)CC(=C/C=C2\CCC[C@]3(C)[C@@H]([C@H](C)/C=C/C[C@@H](C)O)CC[C@@H]23)C[C@H]1O [RR-22, 2-methylene-19,26-dinor-(20R,22E,25R)-1α,25-dihydroxyvitamin D3] | almost the same activity as 1,25(OH)2D3 | promotes intestinal calcium transport in a dose dependent manner | did not result in any mobilization of bone calcium; also recorded: no bone calcium mobilization activity | about 10 times | 0.02 | about 10 times | – | – | –
– | – | – | C=C1/C(=C\C=C2/CCC[C@]3(C)[C@@H]([C@H](C)CCCC(C)(C)O)CC[C@@H]23)C[C@@H](O)C[C@@H]1O [1,25(OH)2D3, 1α,25-dihydroxyvitamin D3, reference compound] | – | – | – | – | 0.2 | – | significant activity | increased serum calcium levels at all dosages | 2
